Article PMC6365497, “2-aminoimidazoles collapse mycobacterial proton motive force and block the electron transport chain” (Scientific Reports, 2019)
≈ marks a conversion by molar mass, not a printed value. Where “and” joins values, the source holds several entries; their conditions need not be identical. Equal entries are not always repeated. Entries after “also recorded” stand apart in the source; their conditions may differ. Where two headings read alike, the source gives them in different places.

Columns and labels:
M. tuberculosis [1] = test: microbe, parasite or virus in culture; type: cell-based, Mycobacterium tuberculosis
M. smegmatis [2] = test: Kinetic measurement of alamarBlue reduction
[3] = test system: M. tuberculosis mc^2 6206; type: cell-based, Mycobacterium tuberculosis
M. smegmatis IMVs [4] = test: NADH oxidation by IMVs; type: biochemical
M. tuberculosis [5] = test: Quantification of intracellular ATP
M. smegmatis IMVs [6] = test: ETC activity assay with IMVs (INT reduction); type: biochemical
[7] = test system: M. tuberculosis H37Rv mc^2 6206; type: cell-based, Mycobacterium tuberculosis; settings: for NADH/NAD+ ratio: Low (≤ 62.5 µM) 2B8
M. tuberculosis [8] = test: β-lactam potentiation assay; type: cell-based, Mycobacterium tuberculosis
M. smegmatis IMVs [9] = type: biochemical
M. smegmatis IMVs [10] = test: Determination of ΔpH collapse with IMVs (ACMA); settings: for ΔpH collapse: Acute (≤ 2 h)
M. smegmatis [11] = test: Determination of Δψ collapse by DisC3(5); type: cell-based; settings: for Δψ collapse: Acute (≤ 2 h)
M. tuberculosis [12] = test: Kinetic measurement of alamarBlue reduction; type: cell-based, Mycobacterium tuberculosis
M. tuberculosis [13] = test system: M. tuberculosis; parameters: method as in PMID 28749949; settings: cited from earlier work
M. smegmatis [14] = test: MIC against M. smegmatis; type: cell-based
[15] = test system: mycobacterial cell membrane; settings: prolonged incubation (24 h); cited from earlier work
[16] = High (> 62.5 µM) 2B8, Acute (≤ 2 h)
[17] = Low (≤ 62.5 µM) 2B8, Acute (≤ 2 h)
[18] = Low (≤ 62.5 µM) 2B8, Delayed (> 2 h)
[19] = M. tuberculosis, compound at 50% of its MIC, MIC of β-lactam / MIC of β-lactam plus drug

Molecule: carbonyl cyanide m-chlorophenyl hydrazine [CCCP, reference compound]
- MIC (M. tuberculosis [1]; read-out: MIC (MIC95)): 20 µM
- alamarBlue reduction (M. smegmatis [2]): inhibited
- Effect on oxygen consumption rate (OCR) [3]: bell-shaped, dose-response effect
- O2 consumption rate (summary) [3]: ↑ t he n ↓
- Effect on NADH oxidation (fluorescence decay 340ex/460em) (M. smegmatis IMVs [4]): tendency to accelerate NADH oxidation
- NADH oxidation (summary) (M. smegmatis IMVs [4]): Weak ↑
- [ATP]i (summary) (M. tuberculosis [5]): Intermediate ↓
- ETC activity (INT reduction at 490 nm) (M. smegmatis IMVs [6]): tendency to increase ETC activity
- ETC activity (summary) (M. smegmatis IMVs [6]): Weak ↑
- NADH/NAD+ ratio (summary) [7]: N o effect
- NADH/NAD^+ ratio [7]: did not increase
- Fold potentiation of Carbenicillin (M. tuberculosis [8]): 9.6x
- Fold potentiation of Meropenem (M. tuberculosis [8]): 16x
- β-lactam potentiation (summary) (M. tuberculosis [8]): Intermediate ↑
- Rescue by CFZ (summary) (M. smegmatis IMVs [9]): N o effect
- ΔpH collapse (summary) (M. smegmatis IMVs [10]): Intermediate
- Δψ collapse (summary) (M. smegmatis [11]): S t r o ng
- alamarBlue reduction (M. tuberculosis [12]): inhibited
- alamarBlue reduction (summary) (M. tuberculosis [12]): Weak ↓

Molecule: CC1(C)S[C@@H]2[C@H](NC(=O)C(C(=O)O)c3ccccc3)C(=O)N2[C@H]1C(=O)O (stereo partly shown) [Carbenicillin]
- MIC (MIC95) (M. tuberculosis [13]): 1000 µg/mL

Molecule: CCCCCCC(CCCCCC)NC(=O)CCCc1cnc(N)[nH]1 [2B8]
- MIC (M. tuberculosis [1]): 250 to 500 µM and 250 µM
- MIC (M. smegmatis [14]; M. smegmatis, +0.5% BSA): 125 to 250 µM
- MIC (M. smegmatis [14]; M. smegmatis, No BSA): 62.5 µM (≈ 21.9 µg/mL)
- alamarBlue reduction (M. smegmatis [2]): inhibited
- O2 consumption rate [3, 16]: ↓ to basal
- Concentration required to decrease OCR ([3]; M. tuberculosis): ≥ 93 µM
- OCR versus basal OCR ([3]; M. tuberculosis, 250 µM 2B8 (highest tested concentration)): no statistical difference
- Effect on oxygen consumption rate (OCR) ([3]; M. tuberculosis, stepwise increasing concentration, media without BSA): OCR increased
- Concentration up to which OCR increased (levelling off) ([3]; M. tuberculosis, stepwise increments): 62.5 µM
- O2 consumption rate (summary) ([3]; Table S2 summary): ↑ t he n ↓
- Effect on NADH oxidation (fluorescence decay 340ex/460em) (M. smegmatis IMVs [4]): significantly inhibited
- NADH oxidation (M. smegmatis IMVs [4]; [17]): N o effect
- Concentration at which NADH oxidation is significantly inhibited (M. smegmatis IMVs [4]; M. smegmatis IMVs): greater than 62.5 µM
- NADH oxidation (summary) (M. smegmatis IMVs [4]; Table S2 summary): S t r o ng ↓
- MIC (MIC95) (M. tuberculosis [13]): 250 µM
- Concentration causing catastrophic cell membrane disruption [15]: ≥ 125 µM
- [ATP]i (M. tuberculosis [5]; [16]): N o effect
- [ATP]i (M. tuberculosis [5]; [17]): N o effect
- [ATP]i (M. tuberculosis [5]; [18]): N o effect- ↓
- [ATP]i (summary) (M. tuberculosis [5]; Table S2 summary): S t r o ng ↓
- ETC activity (INT reduction at 490 nm) (M. smegmatis IMVs [6]): potently inhibited
- ETC activity (M. smegmatis IMVs [6]; [17]): N o effect
- Concentration with inhibitory effect on the ETC (M. smegmatis IMVs [6]; M. smegmatis IMVs): ≥ 78 µM
- ETC activity (summary) (M. smegmatis IMVs [6]; Table S2 summary): S t r o ng ↓
- NADH/NAD^+ ratio [7]: significantly increased; also recorded: persisted
- NADH/NAD+ ratio ([7]; Acute (≤ 2 h)): N o effect- ↑
- NADH/NAD+ ratio ([7]; Delayed (> 2 h)): N o effect- ↑
- NADH/NAD+ ratio (summary) ([7]; Table S2 summary): S t r o ng ↑
- Fold potentiation of Carbenicillin (M. tuberculosis [8]; [19]): 64x
- Fold potentiation of Meropenem (M. tuberculosis [8]; [19]): 64x
- β-lactam potentiation (summary) (M. tuberculosis [8]; Table S2 summary): S t r o ng ↑
- Restoration of inhibited NADH oxidation by CFZ (M. smegmatis IMVs [9]; M. smegmatis IMVs treated with 5 mM KCN, 80 µM TRZ or 125 µM 2B8, 42 µM CFZ added): also restored by CFZ
- Rescue by CFZ (summary) (M. smegmatis IMVs [9]; Table S2 summary): Partial
- Effect on ΔpH, ACMA fluorescence reversal (M. smegmatis IMVs [10]): collapsed the ΔpH
- ΔpH collapse (M. smegmatis IMVs [10]; High (> 62.5 µM) 2B8): S t r o ng
- ΔpH collapse (M. smegmatis IMVs [10]; Low (≤ 62.5 µM) 2B8): Low- Strong
- ΔpH collapse (summary) (M. smegmatis IMVs [10]; Table S2 summary): S t r o ng
- Effect on Δψ (membrane potential), DiSC3(5) fluorescence reversal (M. smegmatis [11]): rapidly depolarized the membrane potential
- Δψ collapse (M. smegmatis [11]; High (> 62.5 µM) 2B8): S t r o ng
- Δψ collapse (M. smegmatis [11]; Low (≤ 62.5 µM) 2B8): S t r o ng
- Δψ collapse (summary) (M. smegmatis [11]; Table S2 summary): S t r o ng
- alamarBlue reduction (M. tuberculosis [12]): inhibited
- alamarBlue reduction (M. tuberculosis [12]; [18]): N o effect
- alamarBlue reduction (M. tuberculosis [12]; M. tuberculosis, 2B8 62.5 µM): not
- alamarBlue reduction (summary) (M. tuberculosis [12]; Table S2 summary, mycobacteria): S t r o ng ↓

Molecule: CCCCCCCCCCCCCNC(=O)CCCc1cnc(N)[nH]1 [RA13]
- MIC (M. tuberculosis [1]): > 1000 µM
- MIC (M. smegmatis [14]): > 1000 µM
- alamarBlue reduction (M. smegmatis [2]): did not have an effect
- Effect on oxygen consumption rate (OCR) [3]: minimal changes in OCR
- O2 consumption rate (summary) [3]: Weak ↑
- Effect on NADH oxidation (fluorescence decay 340ex/460em) (M. smegmatis IMVs [4]): did not have any effect
- NADH oxidation (summary) (M. smegmatis IMVs [4]): N o effect
- [ATP]i (summary) (M. tuberculosis [5]): N o effect
- ETC activity (INT reduction at 490 nm) (M. smegmatis IMVs [6]): only affected INT reduction in the presence of both substrates
- ETC activity (summary) (M. smegmatis IMVs [6]): Weak ↓
- NADH/NAD+ ratio (summary) [7]: N o effect
- NADH/NAD^+ ratio [7]: inactive
- Fold potentiation of Carbenicillin (M. tuberculosis [8]): 1.5x
- Fold potentiation of Meropenem (M. tuberculosis [8]): 2x
- β-lactam potentiation (summary) (M. tuberculosis [8]): M a r g in a l ↑
- ΔpH collapse (summary) (M. smegmatis IMVs [10]): Weak
- Effect on Δψ (membrane potential), DiSC3(5) fluorescence reversal (M. smegmatis [11]): no effect
- Δψ collapse (summary) (M. smegmatis [11]): N o effect
- alamarBlue reduction (M. tuberculosis [12]): did not have an effect
- alamarBlue reduction (summary) (M. tuberculosis [12]): N o effect
